The text below walks through data of patent US11945799B2, “4-ethynylpyridine derivatives useful as GCN2 inhibitors” (IP2IPO INNOVATIONS LIMITED, priority 2020, dated 2024).

Structures are written as SMILES. Read-outs that look alike come from different tables or passages of the source.

Data set [1] has as its target T1, full-length human GCN2 enzyme (Homo sapiens, UniProt Q9P2K8).
T1 construct: purchased Carna Bioscience
The data set can be described thus: GCN2 enzyme inhibition, LanthaScreen TR-FRET Kinase Activity assay (10 μM and 300 μM ATP). The class given is biochemical. The following applies: for IC50 / Ki: mean of replicate assays. As to the method: Biological and Pharmacokinetic Testing (a) GCN2 Enzyme Inhibition (10 μM and 300 μM Assays) Assay Protocol Overview:
The inhibitory activity of the Example compounds towards GCN2 enzyme was measured according to the description below, using a LanthaScreen TR-FRET (Time Resolved Fluorescence Resonance Energy Transfer) Kinase Activity assay distributed by ThermoFisher Scientific.
The full-length human GCN2 enzyme (UniProt accession number Q9P2K8) was used for all experiments (Carna Bioscience). The TR-FRET pair was composed of GFP-eIF2α and LanthaScreen Terbium-labeled anti-peIF2α (pSer52) Antibody.
Each example compound was dissolved in DMSO (0.15 mM) and dispensed in a 384-well plate by a D300 dispenser (Tecan) to a final concentration range 3000-0.13 nM using the logarithmic dilution mode in 2 replicates. Full inhibition (3000 nM commercial reference inhibitor) and DMSO vehicle control wells were also included on the same plate. All volumes were normalized to the final DMSO concentration of 2% of the reaction volume. Next, 5 μL of H2O was added to each well of the plate.
The enzyme mixture was prepared to obtain the following concentrations: • GCN2—30 nM • unloaded tRNA—0.3 nM • HEPES (pH=7.0)—100 mM • MgCl2—20 mM; MnCl2—10 mM
The mixture was applied by adding 5 μL to each well of the plate. The enzyme and the tested compound were then incubated at room temperature for 20 min while shaking at 450 rpm.
The substrate mixture was prepared to obtain the following concentrations: • GFP-eIF2α—240 nM • ATP—900 μM or 30 μM • HEPES (pH=7.0)—50 mM • MgCl2—10 mM • MnCl2—5 mM.
The mixture was applied by adding 5 μL to each well of the plate. Thus, the final concentrations of the 15 μL reaction mixture were as follows: • GCN2—10 nM • unloaded tRNA—0.1 nM • GFP-eIF2α—80 nM • ATP—300 μM or 10 μM • HEPES (1 M, pH=7.0)—50 mM • MgCl2—10 mM • MnCl2—5 mM.
The reaction was allowed to proceed at room temperature for 30 min while shaking at 450 rpm.
The antibody mixture was prepared to obtain the following concentrations: • Na2EDTA·2H2O—40 mM, in TR-FRET Dilution Buffer (Life technologies) • Tb—anti-peIF2a antibodies—4 nM.
The mixture was applied by adding 15 μL to each well. The plate was then incubated at room temperature for 60 min while shaking at 450 rpm and then read using Tecan Spark reader using specific TR-FRET filters.
The analysis of the GFP/Tb fluorescence results was conducted with GraphPad Prism to determine IC50 for each of the example compounds using 4-parameter model: log(inhibitor) vs. response-variable slope. IC50 and K, values were calculated in the usual way. The assay was carried out between 1 and 15 times. The results in the table below are the mean results from replicate assays for the compound in question, where applicable.

The nature of data set [2]: Kinetic solubility in PBS buffer pH 7.4. The class given is physicochemical. The following applies: for solubility kinetic at 90 min: aqueous buffer, kinetic from dmso stock, PBS buffer pH 7.4, 90 minutes at room temperature, from 10 mM DMSO stock. As to the method:
The kinetic solubility assay investigates a solubility based on the amount of material which remains in solution after a precipitation process. […] Assay is performed using Multiscreen Vacuum Manifold. A buffer of interest (in standard protocol PBS buffer at pH=7.4 is used) is spiked with stock solution and incubated for 90 minutes at room temperature. After that time solution/suspension is filtrated. The concentration of each compound is determined on the base of prepared calibration curve using UV-VIS spectrophotometry method. The assay is made in triplicate.
Buffer of interest: 0.24 g of KH2PO4, 1.44 g of Na2HPO4, 0.2 g of KCl and 8 g NaCl and dissolve in 1 L distilled H2O; adjust pH to appropriate value (pH 7.4). 190 μl of buffer of interest was dispensed into the wells of a 96 well filter plate, followed by 10 μl of compound (10 mM stock solution in DMSO). The plate was shaken gently at room temperature for 90 minutes at 500 rpm using a BioSan, Plate Shaker-Thermostat, PST-60 HL-4. After 90 minutes, the plate was filtered using a vacuum manifold and vacuum pump. 100 μl of each filtrate and 100 μl acetonitrile was transferred to a 96 well UV-visible light transparent plate and the UV-visible absorption spectrum was measured using a Biotek Synergy 2 multiplate reader from 250-500 nm, interval range 10 nm. The amount of test compound was calculated using a calibration curve prepared by serial dilution of compounds in equivalent amounts of DMSO and acetonitrile.

For data set [3], the system named is GCN2. The data set can be described thus: KINOMEscan competition binding assay, GCN2. More on the design: species or system human. The following applies: kinase GCN2. As for the experimental part: (§1) Compounds were tested for activity against off-target kinases using the KINOMEscan™ screening platform, which employs a novel and proprietary active site-directed competition binding assay to quantitatively measure interactions between test compounds and hundreds of human kinases and disease relevant mutant variants.
(§2) For most assays, kinase-tagged T7 phage strains were grown in parallel in 24-well blocks in an E. coli host derived from the BL21 strain. E. coli were grown to log-phase and infected with T7 phage from a frozen stock (multiplicity of infection=0.4) and incubated with shaking at 32° C. until lysis (90-150 minutes). The lysates were centrifuged (6,000×g) and filtered (0.2 μm) to remove cell debris. The remaining kinases were produced in HEK-293 cells and subsequently tagged with DNA for qPCR detection. […] The liganded beads were blocked with excess biotin and washed with blocking buffer (SeaBlock (Pierce), 1% BSA, 0.05% Tween 20, 1 mM DTT) to remove unbound ligand and to reduce non-specific phage binding. […] Test compounds were prepared as 40× stocks in 100% DMSO and directly diluted into the assay. All reactions were performed in polypropylene 384-well plates in a final volume of 0.02 ml. […] The kinase concentration in the eluates was measured by qPCR.

In another data set the target is off-target kinases. The data set can be described thus: KINOMEscan kinase selectivity panel. Type of data set: binding, human. To be noted: kinases other than those at <0.5%. As to the method: as §1, §2
The next data set has as its target T2, MEK5 (Homo sapiens, UniProt Q13163).
T2 construct: host or cells: E. coli BL21-derived (T7 phage) or HEK-293
T2 sequence (Q13163 1-448): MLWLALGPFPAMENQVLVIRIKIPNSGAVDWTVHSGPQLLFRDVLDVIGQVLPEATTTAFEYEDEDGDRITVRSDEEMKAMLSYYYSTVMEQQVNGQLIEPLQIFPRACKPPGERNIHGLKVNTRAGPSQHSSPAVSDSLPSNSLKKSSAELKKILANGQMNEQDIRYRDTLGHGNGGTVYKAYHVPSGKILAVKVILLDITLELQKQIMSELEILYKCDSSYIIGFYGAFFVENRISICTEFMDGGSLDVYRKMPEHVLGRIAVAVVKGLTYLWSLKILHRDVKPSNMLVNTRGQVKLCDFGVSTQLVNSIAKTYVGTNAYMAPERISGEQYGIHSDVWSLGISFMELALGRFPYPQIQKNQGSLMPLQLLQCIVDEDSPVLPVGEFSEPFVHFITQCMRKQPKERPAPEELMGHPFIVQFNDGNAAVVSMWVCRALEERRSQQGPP
The data set can be described thus: KINOMEscan competition binding assay, MEK5. The following applies: kinase MEK5. As for the experimental part:
as §1, §2

In data set [4] the test system is GCN2. To be noted: KINOMEscan, kinase GCN2; as reported in Nakamura et al (2018); cited from earlier work.
A further data set concerns the target T3, MAP2K5 (Homo sapiens, UniProt Q13163).
T3 sequence (Q13163 1-448): T2 sequence (Q13163 1-448)
The following applies: KINOMEscan, kinase MAP2K5; as reported in Nakamura et al (2018); cited from earlier work.

Another data set deals with STK10 (Homo sapiens, UniProt O94804). To be noted: KINOMEscan, kinase STK10; as reported in Nakamura et al (2018); cited from earlier work.
The next data set has as its target ZAK (Homo sapiens, UniProt Q9NYL2). The following applies: KINOMEscan, kinase ZAK; as reported in Nakamura et al (2018); cited from earlier work.
Setting [5] is: read-out: GCN2 IC50 (nM) 10 uM ATP, 10 uM ATP.
Where [6] appears, read: read-out: GCN2 IC50 (nM) 300 uM ATP, 300 uM ATP.
The mark [7] stands for this setting: read-out: GCN2 Ki (nM) 10 uM ATP, 10 uM ATP.
Setting [8] is: read-out: GCN2 Ki (nM) 300 uM ATP, 300 uM ATP.

T1 sequence (Q9P2K8 whole entry): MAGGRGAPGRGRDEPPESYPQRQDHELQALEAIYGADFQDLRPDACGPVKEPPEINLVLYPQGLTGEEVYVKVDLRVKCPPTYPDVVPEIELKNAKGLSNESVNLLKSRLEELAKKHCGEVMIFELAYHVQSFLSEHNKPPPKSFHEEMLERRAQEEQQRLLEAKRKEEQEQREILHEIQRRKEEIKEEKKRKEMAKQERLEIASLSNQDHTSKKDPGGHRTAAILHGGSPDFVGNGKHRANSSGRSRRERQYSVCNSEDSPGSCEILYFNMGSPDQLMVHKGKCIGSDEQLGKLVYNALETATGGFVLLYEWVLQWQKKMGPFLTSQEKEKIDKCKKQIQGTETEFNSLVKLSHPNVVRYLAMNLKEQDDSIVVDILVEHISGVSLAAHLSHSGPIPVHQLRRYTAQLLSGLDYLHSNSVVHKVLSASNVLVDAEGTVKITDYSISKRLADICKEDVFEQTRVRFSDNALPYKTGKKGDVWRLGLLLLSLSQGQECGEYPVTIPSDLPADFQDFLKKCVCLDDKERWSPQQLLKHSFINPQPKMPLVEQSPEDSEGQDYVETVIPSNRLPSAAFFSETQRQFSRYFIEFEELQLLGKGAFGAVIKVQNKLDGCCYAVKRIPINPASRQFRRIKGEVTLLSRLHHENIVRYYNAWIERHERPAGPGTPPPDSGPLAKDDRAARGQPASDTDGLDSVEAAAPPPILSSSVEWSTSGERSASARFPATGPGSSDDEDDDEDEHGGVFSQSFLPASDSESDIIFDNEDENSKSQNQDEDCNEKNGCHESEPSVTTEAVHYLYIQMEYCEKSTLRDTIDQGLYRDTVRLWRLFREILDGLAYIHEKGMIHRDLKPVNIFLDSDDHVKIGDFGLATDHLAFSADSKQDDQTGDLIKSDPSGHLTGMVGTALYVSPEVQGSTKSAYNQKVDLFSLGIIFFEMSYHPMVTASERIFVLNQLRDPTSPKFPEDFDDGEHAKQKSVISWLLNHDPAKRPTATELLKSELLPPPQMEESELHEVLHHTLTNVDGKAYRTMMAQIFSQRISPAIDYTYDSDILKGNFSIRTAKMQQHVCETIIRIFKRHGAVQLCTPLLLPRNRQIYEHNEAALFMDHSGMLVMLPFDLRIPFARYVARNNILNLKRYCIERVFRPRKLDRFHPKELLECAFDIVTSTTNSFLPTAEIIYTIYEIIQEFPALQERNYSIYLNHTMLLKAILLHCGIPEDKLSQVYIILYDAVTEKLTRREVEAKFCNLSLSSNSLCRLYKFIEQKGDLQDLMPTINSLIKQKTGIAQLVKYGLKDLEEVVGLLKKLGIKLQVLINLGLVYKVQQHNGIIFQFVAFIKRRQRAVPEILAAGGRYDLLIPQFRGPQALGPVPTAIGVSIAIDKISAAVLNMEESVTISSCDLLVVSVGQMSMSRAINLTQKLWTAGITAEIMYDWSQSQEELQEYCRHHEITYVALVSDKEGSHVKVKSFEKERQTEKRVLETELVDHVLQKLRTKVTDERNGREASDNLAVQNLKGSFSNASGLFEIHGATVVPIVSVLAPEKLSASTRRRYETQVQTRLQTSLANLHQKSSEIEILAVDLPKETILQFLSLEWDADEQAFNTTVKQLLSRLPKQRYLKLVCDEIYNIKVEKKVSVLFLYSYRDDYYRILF
Chain of STK10 (O94804 whole entry): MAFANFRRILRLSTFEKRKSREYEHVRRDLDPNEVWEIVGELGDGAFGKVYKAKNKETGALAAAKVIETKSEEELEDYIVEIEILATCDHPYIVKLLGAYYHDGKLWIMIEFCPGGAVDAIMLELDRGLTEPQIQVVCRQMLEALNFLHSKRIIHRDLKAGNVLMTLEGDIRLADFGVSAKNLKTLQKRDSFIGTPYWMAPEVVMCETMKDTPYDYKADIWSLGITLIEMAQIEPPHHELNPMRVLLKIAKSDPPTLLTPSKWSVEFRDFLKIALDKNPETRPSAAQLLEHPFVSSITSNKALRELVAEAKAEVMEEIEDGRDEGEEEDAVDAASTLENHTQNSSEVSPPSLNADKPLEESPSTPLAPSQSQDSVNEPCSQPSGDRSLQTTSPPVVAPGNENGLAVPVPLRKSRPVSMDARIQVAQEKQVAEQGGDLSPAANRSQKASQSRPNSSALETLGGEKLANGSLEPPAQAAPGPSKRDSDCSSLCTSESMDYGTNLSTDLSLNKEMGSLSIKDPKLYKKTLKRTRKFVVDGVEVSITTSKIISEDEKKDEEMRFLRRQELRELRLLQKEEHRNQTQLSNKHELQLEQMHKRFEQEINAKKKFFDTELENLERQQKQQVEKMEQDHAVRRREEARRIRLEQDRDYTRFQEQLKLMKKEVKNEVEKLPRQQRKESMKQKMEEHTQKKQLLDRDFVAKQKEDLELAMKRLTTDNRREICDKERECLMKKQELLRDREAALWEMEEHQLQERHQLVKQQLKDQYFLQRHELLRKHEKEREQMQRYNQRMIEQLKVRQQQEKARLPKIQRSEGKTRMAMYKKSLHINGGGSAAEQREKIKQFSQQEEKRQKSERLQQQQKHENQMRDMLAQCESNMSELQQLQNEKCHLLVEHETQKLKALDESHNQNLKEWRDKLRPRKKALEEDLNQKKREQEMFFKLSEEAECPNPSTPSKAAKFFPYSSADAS
Chain of ZAK (Q9NYL2 whole entry): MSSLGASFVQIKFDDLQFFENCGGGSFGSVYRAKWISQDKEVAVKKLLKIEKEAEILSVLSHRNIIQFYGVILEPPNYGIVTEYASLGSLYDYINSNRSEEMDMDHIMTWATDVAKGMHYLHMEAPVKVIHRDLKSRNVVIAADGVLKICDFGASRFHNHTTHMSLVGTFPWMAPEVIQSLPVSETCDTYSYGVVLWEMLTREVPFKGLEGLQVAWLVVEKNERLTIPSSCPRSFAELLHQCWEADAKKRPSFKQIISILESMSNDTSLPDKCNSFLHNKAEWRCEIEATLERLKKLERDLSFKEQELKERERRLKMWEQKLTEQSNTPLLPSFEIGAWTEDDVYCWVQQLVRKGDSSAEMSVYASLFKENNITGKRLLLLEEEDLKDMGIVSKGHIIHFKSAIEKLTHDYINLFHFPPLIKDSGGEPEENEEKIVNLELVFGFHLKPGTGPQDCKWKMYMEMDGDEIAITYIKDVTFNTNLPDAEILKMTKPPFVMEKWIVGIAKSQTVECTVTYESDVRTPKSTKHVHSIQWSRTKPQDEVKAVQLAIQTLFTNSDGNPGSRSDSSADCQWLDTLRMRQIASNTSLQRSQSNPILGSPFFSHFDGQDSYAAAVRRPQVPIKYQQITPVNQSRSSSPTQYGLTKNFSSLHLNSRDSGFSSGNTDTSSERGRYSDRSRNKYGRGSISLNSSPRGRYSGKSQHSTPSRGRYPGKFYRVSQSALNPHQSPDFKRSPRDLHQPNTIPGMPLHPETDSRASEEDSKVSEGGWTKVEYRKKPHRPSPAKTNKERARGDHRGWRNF

On to `COc1ncc(Cl)cc1S(=O)(=O)Nc1nccc(C#Cc2cnc(N)nc2)c1F` [Example 1, N-{4-[2-(2-aminopyrimidin-5-yl)ethynyl]-3-fluoropyridin-2-yl}-5-chloro-2-methoxypyridine-3-sulfonamide], for which the “GCN2 inhibitory activity (in words)” value in data set [1] is recorded as “strong”. In addition, the figures for the IC50 in data set [1] (setting [5]) and in data set [1] (setting [6]) were 7.2 nM and 103 nM, respectively. Further, the Ki (as a rule, the dissociation constant of the complex between target and ligand, obtained from inhibition or displacement) in [1] (setting [7]) was 2.3 nM; in data set [1] (setting [8]), 1.6 nM. For the same compound, the “kinetic solubility (in words)” value in data set [2] was “good”. Also, the kinetic solubility – broadly, solubility judged after dilution from a stock solution rather than from solid – at 90 min in data set [2] is 218 µg/mL. Further, the “% Control” value with GCN2 [3] is reported as less than 0.5%. On off-target kinases, the “Kinases with % Control <5%” value is “None”.

For `COc1ncc(Cl)cc1S(=O)(=O)Nc1nccc(C#Cc2cnc3[nH]ncc3c2)c1F` [Example 3, 5-chloro-N-[3-fluoro-4-(2-{1H-pyrazolo[3,4-b]pyridin-5-yl}ethynyl)pyridin-2-yl]-2-methoxypyridine-3-sulfonamide], the “GCN2 inhibitory activity (in words)” value in data set [1] is given as “strong”. Besides, the concentration for half-maximal inhibition (IC50) – broadly, the concentration needed to halve the response being measured – in data set [1] (setting [5]) was 3.5 nM; in [1] (setting [6]), 26.5 nM. Further, the Ki in [1] (setting [7]) amounted to 1.1 nM; in [1] (setting [8]), 0.6 nM. For the same compound, in [2], the “kinetic solubility (in words)” value was “good”. Also, the kinetic solubility at 90 min in data set [2] was 229 µg/mL. In addition, the figures for the “% Control” value in the data set on GCN2 [3] and at MEK5 were less than 0.5% and less than 5%, respectively.

For the compound `COc1ncc(Cl)cc1S(=O)(=O)Nc1ccc(F)c(C#Cc2cnc(N)nc2)c1F` [Comp Ex 1, reference compound], the results for the IC50 in data set [1] (setting [5]) and in [1] (setting [6]) were 5.9 nM and 59.2 nM, respectively. For the same compound, the figures for the Ki in data set [1] (setting [7]) and in [1] (setting [8]) were 1.9 nM and 0.9 nM, respectively. The solubility (kinetic) at 90 min in data set [2] came out at 4.7 µg/mL. The “% Control” value is less than 0.5% with GCN2 [4], less than 5% on MAP2K5, less than 5% on STK10 and less than 5% at ZAK.

With `COc1ncc(Cl)cc1S(=O)(=O)Nc1nccc(C#Cc2cnc3[nH]cnc3c2)c1F` [Example 29, 5-chloro-N-[3-fluoro-4-(2-{3H-imidazo[4,5-b]pyridin-6-yl}ethynyl)pyridin-2-yl]-2-methoxypyridine-3-sulfonamide], the IC50 in [1] (setting [6]) amounted to 654 nM. The Ki in data set [1] (setting [8]) came out at 10 nM. In data set [2], the solubility (kinetic) at 90 min stood at 231 µg/mL.

In the case of `COc1ncc(Cl)cc1S(=O)(=O)Nc1nccc(C#Cc2cncc3c2cnn3C)c1F` [Example 20, 5-chloro-N-[3-fluoro-4-(2-{1-methyl-1H-pyrazolo[3,4-c]pyridin-4-yl}ethynyl)pyridin-2-yl]-2-methoxypyridine-3-sulfonamide], the values for the IC50 in data set [1] (setting [5]) and in data set [1] (setting [6]) were 14.5 nM and 324 nM, respectively. Also, the results for the Ki in data set [1] (setting [7]) and in data set [1] (setting [8]) were 4.6 nM and 4.9 nM, respectively. Further, the solubility (kinetic) at 90 min in data set [2] came out at 70.6 µg/mL.

For the compound `COc1ccc(Cl)cc1S(=O)(=O)Nc1nccc(C#Cc2cnc3[nH]ncc3c2)c1F` [Example 12, 5-chloro-N-[3-fluoro-4-(2-{1H-pyrazolo[3,4-b]pyridin-5-yl}ethynyl)pyridin-2-yl]-2-methoxybenzene-1-sulfonamide], the IC50 in [1] (setting [6]) was 257 nM. For the same compound, in [1] (setting [8]), the Ki was found to be 3.9 nM. For the same compound, in data set [2], the solubility (kinetic) at 90 min is 161 µg/mL.
